What is called IC50 is the concentration that inhibits the measured activity by half.

The text below walks through data of publication PMC3618488 (Chemical communications (Cambridge, England), 2013).

The target in the experiment is Pseudomonas aeruginosa elastase (LasB) (Pseudomonas aeruginosa, UniProt P14756). As to the kind of experiment: biochemical. The format is biochemical. As to conditions: for fold reduction in potency relative to tropolone (3): against LasB, compared with 3.

Read-outs that look alike come from different tables or passages of the source.

Chain of Pseudomonas aeruginosa elastase (LasB) (P14756 198-498): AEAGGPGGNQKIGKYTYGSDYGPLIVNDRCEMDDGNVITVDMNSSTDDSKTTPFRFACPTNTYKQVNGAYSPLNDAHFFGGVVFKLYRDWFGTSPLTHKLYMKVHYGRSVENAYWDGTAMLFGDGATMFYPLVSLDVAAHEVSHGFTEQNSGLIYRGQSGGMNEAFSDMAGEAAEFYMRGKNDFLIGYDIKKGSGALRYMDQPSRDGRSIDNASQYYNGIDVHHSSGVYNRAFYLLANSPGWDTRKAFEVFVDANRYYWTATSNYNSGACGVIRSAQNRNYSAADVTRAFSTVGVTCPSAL

With acetyltropolone [compound 4], the “fold reduction in potency relative to tropolone (3)” value is recorded as ~ 3 fold.

Regarding `CC(C)c1cccc(=O)c(O)c1` [compound 5, β-thujaplicin], 1340 ± 370 µM corresponded to half-maximal inhibition (IC50) and the “fold reduction in potency relative to tropolone (3)” value was ~ 3 fold.

`Nc1ccc(O)c(=O)cc1` [compound 6, 5-aminotropolone]: the IC50 (read-out: IC50 for LasB inhibition) was 180 ± 1 µM.
